The values that follow come from patent US6858607B1, “7,8-fused 4H-chromene and analogs as activators of caspases and inducers of apoptosis and the use thereof” (Cytovia, Inc., priority 2001, dated 2005).

Where only a bound is given, the exact number is not on record here.

One test concerns T-47D. Nature of the test: Caspase cascade activation in T-47D cells (N-(Ac-DEVD)-N'-ethoxycarbonyl-R110 fluorogenic substrate). The test is classed as cell-based. Particulars: T-47D human breast cancer cells, 24 h incubation; for T-47D Ratio (caspase activity): ratio of net RFU of test compound to control. As for the experimental part: (§1) Human breast cancer cell lines T47D and ZR-75-1 were grown according to media component mixtures designated by American Type Culture Collection+10% FCS (Invitrogen Corporation), in approximately 5% CO2-95% humidity incubator at approximately 37° C. T-47D and ZR-75-1 cells were maintained at a cell density between 30 and 80% confluency at a cell density of 0.1 to 0.6×10^6 cells/mL. Cells were harvested at approximately 600×g and resuspended at approximately 0.65×10^6 cells/mL into appropriate media plus approximately 10% FCS. An aliquot of approximately 45 μl of cells was added to a well of a 96-well microtiter plate containing approximately 5 μl of a solution of approximately 10% DMSO in RPMI-1640 media solution containing approximately 0.16 to 10 μM of the test compounds (0.016 to 1 μM final). An aliquot of approximately 45 μl of cells was added to a well of a 96-well microtiter plate containing approximately 5 μl of a solution of approximately 10% DMSO in RPMI-1640 media solution without test compound as the control sample. The samples were mixed by agitation and then incubated at approximately 37° C. for approximately 24 h in approximately 5% CO2-95% humidity incubator. After incubation, the samples were removed from the incubator and approximately 50 μl of a solution containing approximately 20 μM of N-(Ac-DEVD)-N′-ethoxycarbonyl-R110 fluorogenic substrate, SEQ ID NO:1 (Cytovia, Inc.; U.S. Pat. No. 6,335,429), comprising approximately 20% sucrose (Sigma), 20 mM DTT (Sigma), 200 mM NaCl (Sigma), 40 mM Na PIPES buffer at approximate pH 7.2 (Sigma), and approximately 500 μg/ml lysolecithin (Calbiochem) was added. The samples were mixed by agitation and incubated at room temperature. Using a fluorescent plate reader (Model 1420 Wallac Instruments), an initial reading (T=0) was made approximately 1-2 min after addition of the substrate solution, employing excitation at 485 nm and emission at […], to determine the background fluorescence of the control sample. After the 3 h incubation, the samples were read for fluorescence as above (T=3 h).
(§2) The Relative Fluorescence Unit values (RFU) were used to calculate the sample readings as follows: RFU(T=3h)−Control RFU(T=0)=Net RFU(T=3h)
(§3) The activity of caspase cascade activation was determined by the ratio of the net RFU value for the test compounds to that of control samples. The EC50 (nM) was determined by a sigmoidal dose-response calculation (Prism 2.0, GraphPad Software Inc.).

The next test relates to ZR-75-1. Kind of test: Caspase cascade activation in ZR-75-1 cells (N-(Ac-DEVD)-N'-ethoxycarbonyl-R110 fluorogenic substrate). The test is classed as cell-based. Particulars: ZR-75-1 human breast cancer cells, 24 h incubation; for ZR-75-1 Ratio (caspase activity): ratio of net RFU of test compound to control; for EC50: sigmoidal dose-response. As for the experimental part: as §1, §2, §3

A word on the EC50: it is the concentration that produces a half-maximal response. Low readings indicate a more potent agent, high ones a less potent agent.

As for “2-Amino-3-cyano-4-(3-bromo-4,5-dimethoxyphenyl)-4H-triazo[4,5-h]chromene [Example 1]”, the “T-47D Ratio (caspase activity)” value in the test with T-47D is recorded as 1.8. Moreover, the concentration giving a half-maximal response (EC50) in the test on T-47D (sigmoidal dose-response) was greater than 1 µM. Besides, in the test on ZR-75-1, the “ZR-75-1 Ratio (caspase activity)” value was determined as 5.3 and the EC50 was 0.56 µM.

Turning to `COc1cc(C2C(C#N)=C(N)Oc3c2ccc2oc(=O)[nH]c32)cc(Br)c1OC` (centres unmarked) [Example 2, 2-Amino-3-cyano-4-(3-bromo-4,5-dimethoxyphenyl)-8-oxo-4,8,9-trihydro-oxazo[5,4-h]chromene], in the test with T-47D, the “T-47D Ratio (caspase activity)” value stood at 6.4. Besides, the EC50 in the test with T-47D (sigmoidal dose-response) was 0.567 µM. Further, in the test with ZR-75-1, the “ZR-75-1 Ratio (caspase activity)” value turned out to be 8.5 and the half-maximal effective concentration (EC50) stood at 0.366 µM.

For `COc1cc(C2C(C#N)=C(N)Oc3c2ccc2oc(=O)n(C)c32)cc(Br)c1OC` (centres unmarked) [Example 3, 2-Amino-3-cyano-4-(3-bromo-4,5-dimethoxyphenyl)-8-oxo-4,8-dihydro-9-methyl-oxazo[5,4-h]chromene], the “T-47D Ratio (caspase activity)” value in the test with T-47D is 1.5. The “T-47D EC50 (nM)” value with T-47D (sigmoidal dose-response) is recorded as “Inactive”. Further, the “ZR-75-1 Ratio (caspase activity)” value in the test with ZR-75-1 worked out at 2.7.

As for `COC=NC1=C(C#N)C(c2cc(Br)c(OC)c(OC)c2)c2ccc3ocnc3c2O1` (centres unmarked) [Example 4, 2-Methoxymethylimine-3-cyano-4-(3-bromo-4,5-dimethoxyphenyl)-4H-oxazo[5,4-h]chromene], the “T-47D Ratio (caspase activity)” value in the test on T-47D amounted to 8.1. The compound also yielded an EC50 in the test with T-47D (sigmoidal dose-response) of 0.0472 µM. In the test with ZR-75-1, the “ZR-75-1 Ratio (caspase activity)” value came out at 7.9 and the EC50 turned out to be 0.023 µM.

As to `COc1cc(C2C(C#N)=C(N)Oc3c2ccc2[nH]c(=O)oc32)cc(Br)c1OC` (centres unmarked) [Example 5, 2-Amino-3-cyano-4-(3-bromo-4,5-dimethoxyphenyl)-8-oxo-4,7,8-trihydro-oxazo[4,5-h]chromene], the “T-47D Ratio (caspase activity)” value in the test on T-47D is 8.6. Also, the concentration for a half-maximal effect (EC50) with T-47D (sigmoidal dose-response) amounted to 0.285 µM; with ZR-75-1, 0.156 µM. Also, the “ZR-75-1 Ratio (caspase activity)” value in the test on ZR-75-1 came to 4.5.

As to `COc1cc(C2C(C#N)=C(N)Oc3c2ccc2c3oc(=O)n2C)cc(Br)c1OC` (centres unmarked) [Example 6, 2-Amino-3-cyano-4-(3-bromo-4,5-dimethoxyphenyl)-8-oxo-4,8-dihydro-7-methyl-oxazo[4,5-h]chromene], the “T-47D Ratio (caspase activity)” value in the test with T-47D came out at 6.5. Moreover, the EC50 with T-47D (sigmoidal dose-response) stood at 0.0118 µM.

As for `COc1cc(C2C(C#N)=C(N)Oc3c2ccc2ncoc32)cc(Br)c1OC` (centres unmarked) [Example 7, 2-Amino-3-cyano-4-(3-bromo-4,5-dimethoxyphenyl)-4H-oxazo[4,5-h]chromene], the “T-47D Ratio (caspase activity)” value with T-47D is recorded as 7.8. Further, the EC50 in the test with T-47D (sigmoidal dose-response) came out at 0.0687 µM. In addition, in the test with ZR-75-1, the “ZR-75-1 Ratio (caspase activity)” value is listed as 9.8 and the EC50 amounted to 0.043 µM.

For `COc1cc(C2C(C#N)=C(N)Oc3c2ccc2ocnc32)cc(Br)c1OC` (centres unmarked) [Example 8, 2-Amino-3-cyano-4-(3-bromo-4,5-dimethoxyphenyl)-4H-oxazo[5,4-h]chromene], the “T-47D Ratio (caspase activity)” value in the test with T-47D is 7.9. The 50% effective concentration (EC50) in the test on T-47D (sigmoidal dose-response) came to 0.0351 µM. In addition, in the test on ZR-75-1, the “ZR-75-1 Ratio (caspase activity)” value turned out to be 7.2 and the 50% effective concentration (EC50) amounted to 0.0129 µM.
